On the set-up of data set [1]: method as in PMID 30072500. The note with it: patients, preliminary dosimetry study; cited from earlier work.
Data set [2] in a line: LogD7.4 measurement (n-octanol / phosphate buffer pH 7.4). It is filed as physicochemical. The note with it: n-octanol / 0.1 M phosphate buffer pH 7.4, n = 3. As for the experimental part: Briefly, ^68Ga-labeled tracers (1.11–1.48 MBq) were aliquoted into vials containing 3 mL of n-octanol and 3 mL of 0.1 M phosphate buffer (pH 7.4) in triplicate. Each vial was then vortexed (1 min) and centrifuged (5000 RPM, 10 min). The n-octanol and aqueous layers were sampled (1 mL) and counted using an automated gamma counter and the LogD7.4 value was calculated using the following equation: LogD7.4=log10counts in n-octanol phase/counts in buffer phase

Data set [3] has as its system HEK293T:hFAP tumor-bearing mice. Nature of the data set: Ex vivo biodistribution in HEK293T:hFAP tumor xenograft mouse model. The note with it: HEK293T:hFAP tumor-bearing mice, 1 h pi, unblocked. As for the experimental part:
Imaging and biodistribution studies were performed using immunodeficient male NRG (NOD.Cg-Rag1tm1Mom Il2rgtm1Wjl/SzJ) mice. All experiments were conducted according to the guidelines established by the Canadian Council on Animal Care and approved by Animal Ethics Committee of the University of British Columbia. The mice were subcutaneously inoculated with 7.5 × 10^6 HEK293T:hFAP cells in the left dorsal flank. When the tumors grew to 6–8 mm in diameter, the mice were used for PET/CT imaging and biodistribution studies.
For biodistribution studies, the mice were injected with ~1–2 MBq (0.01–0.04 nmol) of the ^68Ga-labeled tracer, using the exact procedures described above. At 1 h post injection, the mice were euthanized by CO2 inhalation. Blood was withdrawn by cardiac puncture and organs/tissues of interest were collected, weighed, and counted using a Perkin Elmer (Waltham, MA, USA) Wizard2 2480 automatic gamma counter. The percent injected dose per gram of tissues (%ID/g) for different tracers was calculated.
For blocking studies, HEK293T:hFAP tumor-bearing mice were co-injected with [^68Ga]Ga-SB03045 and excess nonradioactive Ga-FAPI-04 (0.5 mg/mouse) as a competitor. Imaging and biodistribution were performed at 1 h pi, similar to the process for the unblocked mice.

In the case of `N#C[C@@H]1CC(F)(F)CN1C(=O)CNC(=O)c1ccnc2ccc(OCCCN3CCN(C(=O)CN4CCN5CCN(CC(=O)O)CCN(CC4)CC(=O)[O][68Ga+][O]C(=O)C5)CC3)cc12` [[^68Ga]Ga-FAPI-04, reference compound], the “Drop of tumor uptake from 1 to 3 h post-injection” value in data set [1] is on record as 25%. Further, the LogD7.4 in data set [2] is reported as −1.92 ± 0.35. In data set [3], the “Adrenal Glands uptake” value is 1.31 ± 0.60 %ID/g, the Blood uptake is recorded as 1.20 ± 0.30 %ID/g, the Bone uptake is 3.79 ± 1.36 %ID/g and the Brain uptake worked out at 0.05 ± 0.01 %ID/g. In addition, in data set [3], the Fat uptake was 0.14 ± 0.06 %ID/g, the Heart uptake is 0.37 ± 0.08 %ID/g, the Kidneys uptake was 1.88 ± 0.18 %ID/g and the Liver uptake came out at 0.40 ± 0.07 %ID/g. For the same compound, in data set [3], the Lungs uptake was 0.80 ± 0.16 %ID/g, the Muscle uptake was found to be 0.76 ± 0.20 %ID/g, the Pancreas uptake was found to be 0.44 ± 0.16 %ID/g and the “Small Intestines uptake” value worked out at 0.37 ± 0.07 %ID/g. Also, in data set [3], the Spleen uptake came to 0.60 ± 0.14 %ID/g, the Stomach uptake is listed as 0.16 ± 0.19 %ID/g, the Testes uptake stood at 0.28 ± 0.04 %ID/g and the Tumor/Blood uptake ratio is listed as 10.5 ± 3.25. Besides, in data set [3], the Tumor/Bone uptake ratio is given as 3.49 ± 1.41, the Tumor/Kidney uptake ratio came out at 6.41 ± 1.52 and the Tumor/Muscle uptake ratio amounted to 16.8 ± 5.73.
